From ChEMBL document CHEMBL4033723, “Succinamide derivatives of melampomagnolide B and their anti-cancer activities” (2017)

Test: Induction of apoptosis in human M9-ENL1 cells assessed as cell death after 24 hrs by Annexin V/PI or 7-AAD staining based flow cytometry
Type: functional
Details: M9-ENL1, 24 h, read-out: LC50 (the source's name)

| Compound | CC50 [µM] |
| --- | --- |
| C=C1C(=O)O[C@H]2[C@H]1CC/C(COC(=O)CCC(=O)Nc1nc(N)n[nH]1)=C\CC[C@@]1(C)O[C@@H]21 | 60 |
| C=C1C(=O)O[C@H]2[C@H]1CC/C(COC(=O)CCC(=O)NCCCCCNC(=O)CCC(=O)OC/C1=C/CC[C@@]3(C)O[C@H]3[C@H]3OC(=O)C(=C)[C@@H]3CC1)=C\CC[C@@]1(C)O[C@@H]21 | 19 |
| C=C1C(=O)O[C@H]2[C@H]1CC/C(COC(=O)CCC(=O)NCc1ccccn1)=C\CC[C@@]1(C)O[C@@H]21 | 14 |
| C=C1C(=O)O[C@H]2[C@H]1CC/C(COC(=O)CCC(=O)NCCCCCCCCCCNC(=O)CCC(=O)OC/C1=C/CC[C@@]3(C)O[C@H]3[C@H]3OC(=O)C(=C)[C@@H]3CC1)=C\CC[C@@]1(C)O[C@@H]21 | 12 |
| C=C1C(=O)O[C@H]2[C@H]1CC/C(COC(=O)CCC(=O)N1CCN(C)CC1)=C\CC[C@@]1(C)O[C@@H]21 | 8.1 |
